Results: US20030134420A1, “Methods and compositions for gene delivery” (priority 2000, published 2003)

Experiments:
[1] = system: pCMVLuc luciferase expression per gram of liver; assay: Luciferase expression in liver after tail vein injection of pCMVLuc polyplexes/formulants; settings: mice; for Luciferase Average [pg./g liver]: 15 μg of DNA per injection
[2] = Biodistribution and clearance of 125I-pCMVβGal; type: in vivo; settings: mice
Protocol: The biodistribution of ^125I-pCMV βGal was also studied in mice. Mice were injected with a dose of 300 μL containing 50 μg/mL of DNA. The distribution of free DNA, free DNA and TCDC, encapsulated in a polyplex comprised of block copolymer (PEG5k-b-(Cys-S—C18)10-b-(Lys)45) and the polyplex with TCDC were tested after 5 (FIG. 17A) and 60 (FIG. 17B) minutes. […] The clearance of ^125I-pCMVβGal was also studied using the ABC Polymer, (PEG5k-b-(Cys-S—C18)10-b-(Lys)45) (BP-A).

## C[C@H](CCC(=O)NCCCOCCOCCOCCCN)[C@H]1CC[C@H]2C3[C@H](O)C[C@@H]4C[C@H](O)CCC4(C)[C@H]3C[C@H](O)[C@]12C (stereo partly drawn)
[1]; formulant dose 0.10%
  Luciferase Average [pg./g liver]: 3964 pg./g liver

## C[C@H](CCC(=O)NCCC[N+](C)(C)CCCS(=O)(=O)[O-])[C@H]1CC[C@H]2[C@@H]3[C@H](O)C[C@@H]4C[C@H](O)CC[C@]4(C)[C@H]3C[C@H](O)[C@]12C.O [CHAPS, 3-[(3-Cholamidopropyl)dimethylammonio]1-propanesulfonate hydrate]
[1]; formulant dose 0.50%
  Luciferase Average [pg./g liver]: 178 pg./g liver

## C[C@H](CCC(=O)NCCC[N+](C)(C)CC(O)CS(=O)(=O)[O-])[C@H]1CC[C@H]2[C@@H]3[C@H](O)C[C@@H]4C[C@H](O)CC[C@]4(C)[C@H]3C[C@H](O)[C@]12C (stereo partly drawn) [CHAPSO]
[1]; formulant dose 0.50%
  Luciferase Average [pg./g liver]: 188 pg./g liver

## CCCCCCC(=O)OC[C@H](COP(=O)([O-])OCC[N+](C)(C)C)OC(=O)CCCCCC [DHPC]
[1]; formulant dose 0.40%
  Luciferase Average [pg./g liver]: 470 pg./g liver
[1]; 200 μL dose, 15 μg/mL pCMVLuc, Trigal copolymer polyplexes
  effect of addition of formulant on luciferase expression (FIG. 15): greatly enhances the expression of luciferase

## C[C@H](CCC(=O)N(CCCNC(=O)[C@H](O)[C@@H](O)[C@H](O)[C@H](O)CO)CCCNC(=O)[C@H](O)[C@@H](O)[C@H](O)[C@H](O)CO)[C@H]1CC[C@H]2[C@@H]3CC[C@@H]4C[C@H](O)CC[C@]4(C)[C@H]3C[C@H](O)[C@]12C [Deoxy BIGCHAP]
[1]; formulant dose 0.50%
  Luciferase Average [pg./g liver]: 129 pg./g liver

## C[C@H](CCC(=O)NCCS(=O)(=O)[O-])[C@H]1CC[C@H]2[C@@H]3[C@@H](O)C[C@@H]4C[C@H](O)CC[C@]4(C)[C@H]3CC[C@]12C.[Na+] [TCDC]
[1]; formulant dose 0.50%
  Luciferase Average [pg./g liver]: 517 pg./g liver
[2]; 300 μL dose, 50 μg/mL DNA, BP-A polyplex with TCDC, 5 and 60 minutes
  biodistribution of 125I-pCMVβGal (FIG. 17): redirects the polyplex from the lungs and other organs to the blood
[2]; ABC Polymer (BP-A) polyplex, administration of TCDC
  clearance / half-life of 125I-pCMVβGal DNA: greatly enhanced the half-life of the DNA
